From patent US20050260730A1, “CDK2/cyclin A crystals and uses thereof” (priority 2003, published 2005)
Read-outs that look alike come from different tables or passages of the source. Non-standard residues stand in square brackets, D forms with d. Residues, ends and D or L forms follow the SMILES beside them. Phe(4-F) = N[C@@H](Cc1ccc(F)cc1)C(=O)O

What was measured:
cyclin A = cyclin A (Homo sapiens, UniProt P20248); test: Competitive cyclin A binding assay
CDK2/cyclin A = CDK2/cyclin A (Homo sapiens, UniProt P20248); test: CDK2/cyclin A kinase activity assay; format: biochemical
[1] = read-out: IC50 CDK2/cyclin A kinase activity

Chain of cyclin A (P20248 whole entry): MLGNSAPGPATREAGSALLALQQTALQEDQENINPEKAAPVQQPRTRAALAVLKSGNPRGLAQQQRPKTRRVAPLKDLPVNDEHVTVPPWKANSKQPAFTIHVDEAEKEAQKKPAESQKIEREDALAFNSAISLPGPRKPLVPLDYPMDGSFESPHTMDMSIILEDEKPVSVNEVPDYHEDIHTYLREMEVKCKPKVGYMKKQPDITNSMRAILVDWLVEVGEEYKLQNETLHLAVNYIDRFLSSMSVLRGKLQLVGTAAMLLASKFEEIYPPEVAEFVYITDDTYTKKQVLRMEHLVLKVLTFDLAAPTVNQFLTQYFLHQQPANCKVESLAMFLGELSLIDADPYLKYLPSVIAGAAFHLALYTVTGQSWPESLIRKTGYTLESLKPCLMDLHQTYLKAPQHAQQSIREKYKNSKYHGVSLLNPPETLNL

IC50 (cyclin A) [µM] | IC50 (CDK2/cyclin A; [1]) [µM] | IC50 (CDK2/cyclin A) [µM] | Structure (SMILES)
8.1 | > 50 |  | CC(C)C[C@H](NC(=O)[C@H](CCCNC(=N)N)NC(=O)[C@@H](N)CCCNC(=N)N)C(=O)N[C@@H](Cc1ccccc1)C(N)=O [SEQ ID NO: 20, H-Arg-Arg-Leu-Phe-NH2] (H-RRLF-NH2)
19 | 50 |  | CC(C)C[C@H](NC(=O)[C@H](CCCNC(=N)N)NC(=O)[C@@H](N)CCCNC(=N)N)C(=O)N[C@@H](Cc1ccc(F)cc1)C(N)=O [SEQ ID NO: 29, H-Arg-Arg-Leu-—-(p-F-Phe)-NH2] (H-RRL[Phe(4-F)]-NH2)
 |  | > 50 | CC(=O)N[C@@H](CCCN=C(N)N)C(=O)N[C@@H](CCCN=C(N)N)C(=O)N[C@@H](CC(C)C)C(=O)N[C@@H](CC(N)=O)C(=O)N[C@@H](Cc1ccccc1)C(N)=O [SEQ ID NO: 30, Ac-Arg-Arg-Leu-Asn-Phe-NH2]
